Data: patent publication US9012487B2, “Bicyclo-pyrazoles active as kinase inhibitors” (Nerviano Medical Sciences S.r.l., priority 2006, dated 2015)
Counter-ions that a name gives are not always drawn.

Columns and labels:
IGF1R = target: T1, IGF1R (Homo sapiens, UniProt P08069); assay: Western blot analysis of receptor phosphorylation following stimulation with IGF-1 in MCF-7 human breast cancer cells; assay type: cell-based; conditions: MCF-7 starved cells stimulated with 10 nM IGF1; increasing concentrations of compound; Western blot band of pIGF1R (FIG. 2)
T1 construct: endogenous in cells; host or cells: MCF-7 (ATCC #HTB-22)
Method: Treatment of starved MCF-7 cells with 10 nM IGF1 induced receptor auto-phosphorylation as shown by the appearance of a more intense band of phosphorylated IGF1R (pIGF1R).
Western Blot Analysis of Receptor Phosphorylation Following Stimulation with IGF-1 in MCF-7 Human Breast Cancer Cells
MCF-7 cells (ATCC #HTB-22) were seeded in 12-well tissue culture plates at 2×10^5 cells/well in E-MEM medium (MEM+Earle's BSS+2 mM glutamine+0.1 mM non-essential amino acids)+10% FCS, and incubated overnight at 37° C., 5% CO2, 100% relative humidity. Cells were then starved by replacing E-MEM+10% FCS with E-MEM+0.1% BSA, and incubating overnight. After this incubation, wells were treated with desired concentrations of compound for 1 hour at 37° C., and were then stimulated with 10 nM recombinant human IGF-1 (Invitrogen, Carlsbad, Calif., USA) for 10 minutes at 37° C. Cells were then washed with PBS and lysed in 100 microL/well cell lysis buffer (M-PER Mammalian Protein Extraction Reagent [Product #78501, Pierce, Rockford, Ill., USA]+10 mM EDTA+Protease inhibitor cocktail [Sigma-Aldrich product #P8340]+phosphatase inhibitor cocktail [Sigma-Aldrich products #P2850+#P5726]). […]

IGF-1R = target: T2, IGF-1R (Homo sapiens, UniProt P08069, M1123C/Y1125N); assay: Inhibition assay for IGF-1R kinase activity (Scintillation Proximity Assay); conditions: read-out: IGF1R IC50 (μM) Biochemical assay
T2 construct: made in house; host or cells: baculovirus; virus made in Sf21, protein expressed in H5 insect cells
Method: Human cDNA was used as template for amplification by polymerase chain reaction (PCR) of the whole cytoplasmic portion of IGF-1R (amino acid residues 960-1367), which includes the entire kinase domain. PCR was conducted using the forward primer sequence 5′-[…]-3′ (SEQ ID NO: 1) and the reverse primer sequence 5′-[…]-3′ (SEQ ID NO: 2). In order to facilitate subsequent cloning steps, both primers comprise a BamHI restriction endonuclease site sequence. The PCR product was cloned into a transfer vector for the baculovirus expression system, pVL1393 (Pharmingen), modified to include the sequence encoding the Glutathione S-transferase (GST) fusion protein and a PreScission cleavage site upstream of the inserted gene of interest. The GST-IGF-1R coding region corresponds to nucleic acid residues of 4168-6084. The final protein encoded by the open reading frame corresponds to a fusion protein of 639 amino acids, shown in SEQ ID NO: 3 (FIG. 1). […]
The inhibitory activity of putative kinase inhibitors and the potency of selected compounds was determined using a Scintillation Proximity Assay (SPA) in 96 well microtiter plate format. […] When a radioactively labeled phosphate moiety is transferred by the kinase to the biotinylated peptide, this stimulates light emission by the bead, which is measured in a scintillation counter. […]

[1] = test system: IGF-1 induced S6 ribosomal protein phosphorylation; assay: Growth factor induced S6 ribosomal protein phosphorylation in primary human fibroblasts (NHDF); assay type: cell-based; conditions: normal human dermal fibroblasts (NHDF), stimulated with 10 nM IGF-1; read-out: Inhibition of IGF1R-induced S6 phosphorytation IC50
Method: Growth Factor Induced S6 Ribosomal Protein Phosphorylation in Primary Human Fibroblasts. Phosphorylation of S6 ribosomal protein in response to growth factor stimulation of normal human dermal fibroblasts (NHDF) was used to assess compound potency in inhibiting IGF-1 induced signal transduction in cells, and selectivity towards EGF and PDGF stimulus. NHDF cells obtained from PromoCell (Heidelberg, Germany), were maintained at 37° C. in a humidified atmosphere with 5% CO2 in complete Fibroblast Growth Medium (PromoCell). For assay, NHDF were seeded in 384-well tissue culture plates (clear- and flat-bottomed black plates; Matrix Technologies Inc., Hudson, N.H., USA) at a density of 5000 cells/well in serum-free medium containing 0.1% bovine serum albumin (BSA) and incubated for 5 days. […] Fluorescence images in the DAPI and Cy5™ channels were automatically acquired, stored and analysed using a Cellomics ArrayScan™ IV instrument (Cellomics, Pittsburgh, USA); the Cellomics Cytotoxicity Algorithm was used to quantify cytoplasmic fluorescence associated with phospho-S6 (Cy5™ signal parameter: “Mean Lyso Mass-pH”) for each cell in 10 fields/well, and eventually expressed as a mean population value. […]

T1 sequence (P08069 31-1367): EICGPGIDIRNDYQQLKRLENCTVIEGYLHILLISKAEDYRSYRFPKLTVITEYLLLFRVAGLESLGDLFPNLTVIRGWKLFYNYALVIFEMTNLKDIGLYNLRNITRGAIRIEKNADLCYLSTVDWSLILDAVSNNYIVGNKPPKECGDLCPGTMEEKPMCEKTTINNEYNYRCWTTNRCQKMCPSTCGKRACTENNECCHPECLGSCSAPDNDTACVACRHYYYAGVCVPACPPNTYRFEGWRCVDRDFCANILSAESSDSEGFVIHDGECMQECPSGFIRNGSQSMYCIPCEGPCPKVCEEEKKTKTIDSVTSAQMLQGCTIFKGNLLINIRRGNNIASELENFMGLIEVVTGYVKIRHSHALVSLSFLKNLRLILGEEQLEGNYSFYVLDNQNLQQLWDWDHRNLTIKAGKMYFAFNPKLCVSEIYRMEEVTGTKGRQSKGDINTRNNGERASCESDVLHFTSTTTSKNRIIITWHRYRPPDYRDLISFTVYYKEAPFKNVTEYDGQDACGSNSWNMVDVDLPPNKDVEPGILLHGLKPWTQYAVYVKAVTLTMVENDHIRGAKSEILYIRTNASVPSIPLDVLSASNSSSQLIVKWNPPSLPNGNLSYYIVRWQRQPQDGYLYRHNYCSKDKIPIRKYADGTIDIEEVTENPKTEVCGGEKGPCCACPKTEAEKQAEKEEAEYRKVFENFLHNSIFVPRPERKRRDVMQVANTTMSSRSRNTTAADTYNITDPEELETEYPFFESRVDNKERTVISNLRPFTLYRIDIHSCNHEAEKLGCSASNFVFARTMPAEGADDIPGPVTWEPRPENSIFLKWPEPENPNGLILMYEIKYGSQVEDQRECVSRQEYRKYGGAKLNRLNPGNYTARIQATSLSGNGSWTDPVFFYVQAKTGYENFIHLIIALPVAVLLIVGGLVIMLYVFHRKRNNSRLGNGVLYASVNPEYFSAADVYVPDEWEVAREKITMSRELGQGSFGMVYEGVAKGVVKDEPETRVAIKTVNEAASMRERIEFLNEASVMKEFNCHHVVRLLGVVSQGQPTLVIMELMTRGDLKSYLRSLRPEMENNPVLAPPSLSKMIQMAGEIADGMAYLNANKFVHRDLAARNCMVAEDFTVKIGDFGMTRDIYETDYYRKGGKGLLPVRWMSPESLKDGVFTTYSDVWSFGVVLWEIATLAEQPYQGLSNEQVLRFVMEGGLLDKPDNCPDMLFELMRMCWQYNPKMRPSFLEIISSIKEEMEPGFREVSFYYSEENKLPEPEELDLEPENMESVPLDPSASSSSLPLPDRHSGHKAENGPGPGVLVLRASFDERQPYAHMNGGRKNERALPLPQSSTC
T2 sequence (P08069 with tags, fused parts or gaps M1123C/Y1125N): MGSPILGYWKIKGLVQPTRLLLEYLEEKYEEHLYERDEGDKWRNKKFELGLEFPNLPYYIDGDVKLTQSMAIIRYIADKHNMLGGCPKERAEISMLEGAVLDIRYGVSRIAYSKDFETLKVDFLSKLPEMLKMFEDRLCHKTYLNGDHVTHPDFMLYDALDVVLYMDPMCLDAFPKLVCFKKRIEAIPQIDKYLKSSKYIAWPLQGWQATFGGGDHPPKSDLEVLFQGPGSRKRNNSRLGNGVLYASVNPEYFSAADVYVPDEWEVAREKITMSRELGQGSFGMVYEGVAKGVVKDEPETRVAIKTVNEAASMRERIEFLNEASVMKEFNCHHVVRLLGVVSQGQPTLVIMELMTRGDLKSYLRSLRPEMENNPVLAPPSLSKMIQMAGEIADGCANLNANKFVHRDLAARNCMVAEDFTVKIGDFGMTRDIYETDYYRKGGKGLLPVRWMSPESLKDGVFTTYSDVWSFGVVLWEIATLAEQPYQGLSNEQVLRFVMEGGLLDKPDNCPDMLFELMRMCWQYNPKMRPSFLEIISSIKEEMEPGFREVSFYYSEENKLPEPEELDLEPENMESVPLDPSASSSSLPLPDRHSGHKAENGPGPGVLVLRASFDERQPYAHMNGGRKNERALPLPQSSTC

Q: How did the “inhibition of IGF1R auto-phosphorylation” value (IGF1R) turn out when `CN1CCN(c2ccc(C(=O)Nc3n[nH]c4c3CN(S(=O)(=O)c3cc(F)cc(F)c3)C4(C)C)cc2)CC1` [Example 43, N-[5-(3,5-difluoro-benzenesulfonyl)-6,6-dimethyl-1,4,5,6-tetrahydro-pyrrolo[3,4-c]pyrazol-3-yl]-4-(4-methyl-piperazin-1-yl)-benzamide] was run?
A: The value was “inhibition of IGF1-induced IGF1R auto-phosphorylation”.

Q: For `CN1CCN(c2ccc(C(=O)Nc3n[nH]c4c3CN(S(=O)(=O)c3cc(F)cc(F)c3)C4(C)C)c(F)c2)CC1` [Example 49, N-[5-(3,5-Difluoro-benzenesulfonyl)-6,6-dimethyl-1,4,5,6-tetrahydro-pyrrolo[3,4-c]pyrazol-3-yl]-2-fluoro-4-(4-methyl-piperazin-1-yl)-benzamide], which “inhibition of IGF1R auto-phosphorylation” value (IGF1R) is on record?
A: The value was “inhibition of IGF1-induced IGF1R auto-phosphorylation”.

Q: How did the IC50 (IGF-1R) turn out when `CCOC(=O)n1nc(NC(=O)c2ccc(N3CCN(C)CC3)c(N(C)CCOC)c2)c2c1CNC2` [Example 24, 3-[3-[(2-Methoxy-ethyl)-methyl-amino]-4-(4-methyl-piperazin-1-yl)-benzoylamino]-5,6-dihydro-4H-pyrrolo[3,4-c]pyrazole-1-carboxylic acid ethyl ester hydrochloride] was run?
A: The IC50 was 0.34 µM.

Q: And the IC50 [1]?
A: The IC50 was 3.05 µM.
